Structures are written as SMILES.

This series is described as follows: gradient 5% acetonitrile 3 min, to 50% in 2 min, to 85% in 15 min, held 3 min, 100 µL/min. The settings on record: column: Zorbax Extend-C18 2.1 x 50 mm; eluents: water / acetonitrile, 0.1% formic acid. The essentials: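 A Zorbax Extend-C18 column (2.1 × 50 mm, 1.8 μm) run at 100 μL/min with water and acetonitrile, both containing 0.1% formic acid, separated mixtures of ~100 pure standards. The HPLC was coupled to a quadrupole time-of-flight mass spectrometer operated in positive and negative ionization mode, with dead and dwell volumes of 40 μL and 900 μL. Each retention time was taken from a computationally picked adduct peak that was then manually inspected.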
Consider `Cc1nn(-c2ccc(F)cc2)c(C)c1S(=O)(=O)N1CCC(C(=O)NCc2cccs2)CC1`, for which the RP-LC retention time was 861 s.

`CCc1cccc(NS(=O)(=O)c2cc(-c3[nH]ncc3C(=O)N3CCCC3)oc2C)c1` came in with an RP-LC retention time of 760 s. Regarding `CCOC(=O)CC(NC(=O)CCc1c(C)nc2ncnn2c1C)c1ccc(C)cc1` (stereo not drawn), the RP-LC retention time stood at 695 s. The molecule `O=C(NC1CC1)C1(F)CCN(S(=O)(=O)c2ccccc2)CC1` had an RP-LC retention time of 673 s.

`O=C(CCC1CCN(S(=O)(=O)c2ccccc2)CC1)N1CCCCC1` displayed an RP-LC retention time of 894 s. Molecule `CCNC(=O)c1cc(N2CCCC2)nc2c(C)cccc12` yielded an RP-LC retention time of 702 s. `CCC(C)n1nnc2cc(S(=O)(=O)N3CCC(C(=O)NCc4cccnc4)CC3)ccc21` (stereo not drawn) displayed an RP-LC retention time of 648 s. In turn, `COc1ccc(C)cc1NC(=O)Cn1nc(N2CCCC2)c2ccccc2c1=O` showed an RP-LC retention time of 840 s.

`CCn1ccc(C(=O)NC2CCN(c3nnc4ccc(Cl)cn34)CC2)n1` gave an RP-LC retention time of 581 s. The molecule `COc1ccc(C(C)NC(=O)C2CCN(C(=O)c3ncn4c3COC(c3ccccc3)C4)CC2)cc1` (stereo not drawn) registered an RP-LC retention time of 754 s.

On to `COC(=O)c1cc2c(=O)n(Cc3ccco3)ccc2nc1C`, for which the RP-LC retention time came out at 747 s. Molecule `Cc1nn(-c2ccccc2)c(C)c1S(=O)(=O)N1CCC(C(=O)Nc2ccc(Cl)cc2F)CC1` came in with an RP-LC retention time of 1070 s.

Molecule `CCc1nc(-c2cc(S(=O)(=O)N3CCC(C(=O)Nc4cccc(C#N)c4)CC3)c(C)s2)no1` came in with an RP-LC retention time of 1020 s. Molecule `CCOc1ccc(-n2ccn3cc(-c4cc(C)ccc4C)nc3c2=O)cc1` came in with an RP-LC retention time of 951 s.

Molecule `COc1ccc(OC)c(-n2cc(C(=O)O)c3c2C(C(F)(F)F)CC(=O)N3)c1` (stereo not drawn) had an RP-LC retention time of 730 s. Consider `COc1ccc(C2Cn3nnc(-c4nc(-c5ccccc5Cl)no4)c3CO2)cc1` (stereo not drawn), for which the RP-LC retention time turned out to be 1150 s. Molecule `Cc1cc(C)c2c(N(C)C)nc(C(=O)NCCN(C)C3CCCCC3)nc2n1` had an RP-LC retention time of 562 s.

In turn, `O=C(Cn1cnc2c(sc3nc(-c4ccccc4)ccc32)c1=O)NC1CCCCC1` yielded an RP-LC retention time of 972 s.

Molecule `CC(C)c1ccc(S(=O)(=O)N(CCN2CCCCC2C)CC(=O)N2CCNCC2)cc1` (stereo not drawn) had an RP-LC retention time of 610 s. With `COCC(=O)Nc1cnc(-c2ccc(OC)cc2)nc1`, the RP-LC retention time came out at 724 s. In turn, `CN1C(=O)c2cc(S(=O)(=O)Nc3ccc(Cl)cc3F)ccc2Oc2cccnc21` gave an RP-LC retention time of 962 s. In turn, `Cc1nc(CC(=O)Nc2ccc(F)cc2Cl)cs1` had an RP-LC retention time of 845 s. In the case of `CCN(CC)C(=O)c1ccc2c(c1)N(CC(=O)NCCN1CCN(C)CC1)C(=O)CO2`, the RP-LC retention time stood at 567 s. As to `CC(C)n1cnc2cc(CNC(=O)Cc3cccs3)ccc21`, the RP-LC retention time came out at 600 s. With `O=C(Nc1ccc(F)cc1F)N1CCN(CCn2c(-c3ccncc3)nc3cccnc32)CC1` the figure was 581 s; with `COc1ccc(OC)c(NC(=O)CN2CCc3[nH]c4c(C)cc(F)cc4c(=O)c3C2)c1`, 640 s. The molecule `COc1ccc(OC)c(S(=O)(=O)NC2CCCN(c3ccc(=O)n(C)n3)C2)c1` (stereo not drawn) came in with an RP-LC retention time of 702 s. `Cc1ccc(NC(=O)Cn2cnc3c(sc4nc(-c5ccccc5)ccc43)c2=O)cc1Cl` registered an RP-LC retention time of 1120 s. The molecule `Cc1ccc(-n2nc3c(N4CCCC(C(=O)NCc5ccccc5Cl)C4)nnc(C)c3c2C)cc1` (stereo not drawn) registered an RP-LC retention time of 804 s. With `COc1ccc(-c2cc(N3CCC(NC(=O)c4cccc(C#N)c4)C3)n[nH]2)cc1` (stereo not drawn) the figure was 692 s.

The molecule `CC(C)N1CC2(CCN(S(=O)(=O)c3ccccc3)CC2)C1c1ccccc1` (stereo not drawn) yielded an RP-LC retention time of 690 s. In turn, `COc1ccc(CC(=O)N2CCC3(CC2)C(=O)N(C)c2ccccc23)cc1OC` yielded an RP-LC retention time of 752 s. Consider `Cn1ccc2c(cc(C(=O)NCc3cccc(Br)c3)n2C)c1=O`, for which the RP-LC retention time came out at 733 s. In turn, `O=C(Cn1c(CO)nc2ccccc21)N1CCCc2ccccc21` returned an RP-LC retention time of 628 s. In turn, `CCN1C(=O)COc2ccc(-c3nc(NC(=O)c4ccc(F)cc4)sc3C)cc21` displayed an RP-LC retention time of 1050 s. The figure for `CCn1cnnc1C1CCCCN1S(=O)(=O)c1cccc(F)c1` (stereo not drawn) is 716 s. In turn, `CCn1cc(-c2ccc(OC)cc2)cc1C(=O)O` displayed an RP-LC retention time of 825 s. With `Cc1c(Cl)cccc1N1CCn2c1nc1c2c(=O)n(CC(=O)O)c(=O)n1C`, the RP-LC retention time came to 719 s.

`O=C(NC1CCCC1)C1CCN(C(=O)c2ccc(-c3noc(C4CC4)n3)cc2)CC1` returned an RP-LC retention time of 813 s.

With `O=C(NCc1cccnc1)c1cccn1Cc1noc(-c2ccc(Cl)cc2)n1`, the RP-LC retention time is 701 s.

For the molecule `O=C(Cn1ncn2c(cc3cc(F)ccc32)c1=O)N1CCN(c2ccccn2)CC1`, the RP-LC retention time came to 605 s.

In turn, `CCCN1CCN(C(=O)Cn2ccc3ccc(-c4nnc(C)o4)cc32)CC1` returned an RP-LC retention time of 589 s. For `Cc1ccccc1-c1nc(CN2CCN(C(=O)NC3CCCC3)CC2)c(C)o1`, the RP-LC retention time is 672 s. In turn, `COc1nc2ccccc2nc1N1CCCC(C(=O)Nc2cc(F)ccc2F)C1` (stereo not drawn) came in with an RP-LC retention time of 1200 s.

Regarding `CCc1nc(-c2cccc(-c3noc(CNS(=O)(=O)c4ccc(Cl)cc4)n3)c2)cs1`, the RP-LC retention time came out at 1130 s.

Regarding `COc1ccc(-c2noc(C3CC(=O)N(c4ccc(OC)c(Cl)c4)C3)n2)cc1` (stereo not drawn), the RP-LC retention time came out at 947 s. With `Cc1ccc(C)c2sc(OC3CCN(C(=O)c4ccc(=O)n(C)n4)CC3)nc12` the figure was 911 s. In turn, `O=C(Cc1ccccc1Cl)NC1CCN(c2ccc(=O)n(CC3CC3)n2)C1` (stereo not drawn) came in with an RP-LC retention time of 760 s. With `Cc1cnn(Cc2c(C(=O)N3C[C@@H](C(N)=O)[C@H](c4nc(C)no4)C3)noc2C)c1` the figure was 590 s. `CC(C)CCN1CCC(N2CCN(S(=O)(=O)c3ccc(F)cc3)CC2)C1=O` (stereo not drawn) gave an RP-LC retention time of 662 s. With `O=C(NCCC1=CCCCC1)C(=O)Nc1cccc([N+](=O)[O-])c1` the figure was 1030 s.

Molecule `CCNC(=O)c1cc(-c2ccccc2)n(C)c1C` had an RP-LC retention time of 805 s.

With `Cc1ccc(CNC(=O)C2CCN(c3nnc(C)c4c(C)n(-c5ccccc5)nc34)CC2)o1`, the RP-LC retention time came out at 710 s. Regarding `O=C(c1ccccc1F)N1CCC(C(=O)N2CCc3ccccc32)CC1`, the RP-LC retention time was 822 s. In turn, `Cc1ccc2ncn(C3CCN(S(=O)(=O)c4ccc(CC(C)C)cc4)CC3)c(=O)c2c1` displayed an RP-LC retention time of 1150 s. `COc1ccc(-c2noc(N3CCC(N4CCCCC4)CC3)n2)cc1OC`: the RP-LC retention time worked out at 590 s.

Molecule `CCN1CCN(CCCNC(=O)CC2CCN(C(=O)c3[nH]c(C)c(C)c3C)CC2)CC1` registered an RP-LC retention time of 578 s.

`Cc1ccc(N2CC(c3nc(-c4ccc5c(c4)nnn5C)no3)CC2=O)cc1C` (stereo not drawn) displayed an RP-LC retention time of 880 s. `c1cc2c3c(cccc3c1)NC1(CCC3(CC1)Nc1cccc4cccc(c14)N3)N2` displayed an RP-LC retention time of 1200 s. With `CCCS(=O)(=O)c1nc2ccc(NS(=O)(=O)c3ccc(F)c(F)c3)cc2s1` the figure was 973 s; with `CCC(=O)n1nc(-c2ccccc2C)nc1N`, 875 s. `O=C(c1ccc(F)c(F)c1)N1CCN(C(=O)c2nnn3c2COC(c2ccc(Cl)cc2)C3)CC1` (stereo not drawn): the RP-LC retention time came out at 937 s.

For the molecule `CCC(C)(C)NS(=O)(=O)c1cccc(-c2nc(-c3ccccc3)no2)c1`, the RP-LC retention time was 1230 s. With `O=C(CCCn1c(=O)c2cccn2c2ccc(F)cc21)Nc1ccc2c(c1)OCCO2`, the RP-LC retention time stood at 642 s.

In turn, `Cc1ccc(Oc2cccc(C(=O)NCCNc3cc(-n4cccn4)ncn3)c2)nn1` displayed an RP-LC retention time of 615 s.

In the case of `O=C(NCCc1c[nH]c2ccccc12)C1CCCN1c1nnc(N2CCCC2=O)s1` (stereo not drawn), the RP-LC retention time stood at 690 s. The molecule `Cc1ccc(Nc2c(-c3ccc(C(=O)O)cc3)nc3cnccn23)cc1Cl` gave an RP-LC retention time of 790 s.

For `Cc1ccccc1Cn1c2ccccc2c2cnn(CC(=O)NCc3ccco3)c(=O)c21`, the RP-LC retention time stood at 975 s. `Cc1cc(N2CCN(C)CC2)n2nc(-c3ccc(C(C)(C)C)cc3)nc2n1`: the RP-LC retention time came out at 656 s. On to `CC(C)n1nnc2cc(S(=O)(=O)N3CCCC(C(=O)N4CCC(C(N)=O)CC4)C3)ccc21` (stereo not drawn), for which the RP-LC retention time came to 652 s. For `CC(=O)Nc1cc(C(=O)N2CCN(c3cc(C)ccc3C)CC2)c2ccc(C)nc2c1`, the RP-LC retention time was 1250 s.

In turn, `COc1ccc(-n2ncc3c(=O)n(Cc4nc(-c5ccc(C(C)(C)C)cc5)no4)cnc32)cc1` showed an RP-LC retention time of 1270 s. `COc1ccc2c(c1)C1(CCN(S(=O)(=O)c3cc(F)cc(F)c3)C1)C(=O)N2` (stereo not drawn) gave an RP-LC retention time of 872 s.

On to `Cc1nc(N2CCCC2)c2c(C(=O)NCCCc3ccccc3)c(C)oc2n1`, for which the RP-LC retention time was 754 s.

With `COCc1nncn1C1CCN(C(=O)C2(c3ccccc3)CC2)CC1`, the RP-LC retention time stood at 650 s. For the molecule `Cc1c(-c2ccccc2)nc2ccccc2c1C(=O)N1CCN(c2ncccn2)CC1`, the RP-LC retention time came to 636 s. With `CN(C1CCc2nn(C)c(=O)n2CC1)S(=O)(=O)c1cccc(C#N)c1` (stereo not drawn) the figure was 667 s.

In the case of `COC(=O)c1onc(C(=O)c2ccccc2)c1C(=O)OC`, the RP-LC retention time was determined as 931 s.

These data come from the METLIN SMRT retention time set (Domingo-Almenara et al. 2019).
